Experiments:
human anterior segment = conditions: perfusion of the anterior segment; cited from earlier work
Rabbit IOP = Rabbit IOP after topical ocular dosing (pneumatonometer); type: in vivo; conditions: for effect on IOP of rabbits (in words): 500 μg topical (2×25 μL, 1% solution); for % Change in IOP Mean / IOP (mmHg) Mean: 500 μg topical, n = 10
Experimental: When propentofylline was tested in the rabbit for its potential effect on IOP. […] In this study, the rabbits were placed in restrainers, and IOP was determined with an Alcon Pneumatonometer after light corneal anesthesia with 0.1% proparacaine (Alcaine® diluted with physiogical saline). Following each IOP measurement, residual anesthetic was washed away with saline. After two baseline measurements, animals were dosed topically on the cornea with vehicle or propentofylline (2×25 μL, 1% solution). IOP measurements were taken at indicated intervals.

[1] = tested on: IOP in ocular normotensive rabbits; conditions: topical instillation of 2%; cited from earlier work
[2] = tested on: MMP-3 expression in cultured human trabecular meshwork (HTM-35D) cells; experiment: MMP-3 expression in cultured human trabecular meshwork (HTM-35D) cells, proMMP-3 ELISA of medium; type: cell-based; conditions: 72 hours; for change in MMP-3 expression in the TM cells: indicated concentration (FIG. 1, lower panel)
Excerpt: Propentofylline was unexpectedly discovered to stimulate the expression of metalloproteinase-3 (MMP-3; stromelysin) in cultured human trabecular meshwork cells.
Effect of Various Compounds on MMP-3 Expression in Cultured Human Trabecular Meshwork (HTM-35D) Cells
Human TM cells were isolated, characterized and cultured as described (Steely et al, The effects of dexamethasone on fibronectin expression in cultured human trabecular meshwork cells, Investigative Ophthalmology and Visual Science, 1992;33:2242-2250) They were maintained at 5% CO2 and 37° C. in a medium consisting of Dulbecco's modified Eagle medium with Glutamax I supplemented with 10% fetal bovine serum and 50 μg/mL gentamicin. Confluent cell cultures were treated with the indicated compounds at the indicated final concentration for 72 hours and the medium assayed for proMMP-3 by a commercially available ELISA assay kit. (See FIG. 1.) Abbreviations: PPF-OH is hydroxypropentofylline.

lasered monkey eyes = experiment: IOP in lasered (ocular hypertensive) monkey eyes; type: in vivo; conditions: for IOP-lowering effect, single dose: 500 μg in aqueous solution, topical, lasered eye of unanesthetized monkeys; for IOP-lowering effect after repeated doses: 500 μg twice daily, 7 consecutive days, lasered monkey eyes
Experimental: The IOP-lowering effect of propentofylline in primates was discovered when tested in ocular hypertensive monkeys. In this animal model, the IOP of cynomolgus monkeys was artificially elevated by laser-induced photocoagulation of the TM.
Top Panel: IOP-lowering effect of Propentofylline (PPF) (500 μg) in lasered monkey eyes.
These monkeys received 500 μg of propentofylline twice daily for the indicated days and the IOP was measured right after the morning dosing.
Studies were performed as described previously (Toris, et al., Aqueous humor dynamics in monkeys with laser-induced glaucoma, Journal of Ocular Pharmacology and Therapeutics, 2000;16:19-27). (See FIG. 3.)

[3] = tested on: anterior segments of non-glaucomatous donor eyes; experiment: Outflow in human ocular perfusion organ culture; conditions: 100 μM continuous perfusion, days 2 and 3 after initiation of perfusion
Experimental: In this ex vivo study, the anterior segments of non-glaucomatous donor eyes were perfused continuously with 100 μM of propentofylline.
Human ocular perfusion organ culture was performed as described (Tschumper, et al. Glycosaminoglycans of human trabecular meshwork in perfusion organ culture. Current Eye Research, 1990;9:363-369; Clark et al, Dexamethasone-induced ocular hypertension in perfusion-cultured human eyes. Investigative Ophthalmology and Visual Science 1995;36:478-489). Briefly, human cadaver eyes, 16 to 20 hours post mortem, were dissected at the equator and the lens, vitreous and iris were removed. The anterior segment of the eye, including cornea and sclera ring containing TM and ciliary body, was placed into a custom-made plexiglass culture dish and sealed in place with a plexiglass O-ring. Culture media (Dulbecco's modified Eagle medium) was placed in a reservoir and perfused through a central cannula in the bottom of the dish. The reservoir was raised to generate approximately 11 mmHg of hydrostatic pressure relative to the center of the perfused eye. The weight of the reservoir was recorded daily. […]
After a 2-4 days stabilization period, the eyes were perfused with either 100 μM propentofylline (PPF) or vehicle alone and their outflow rates monitored for is another 4 days. * represents p<0.05 by Student's t-test. […]

IOP in the rabbit = conditions: cited from earlier work

## N[C@@H](Cc1c[nH]c2ccccc12)C(=O)NO [L-tryptophan hydroxamate]
Human anterior segment
  effect on outflow facility / aqueous outflow (in words): suppressed aqueous outflow

## CC(=O)CCCCn1c(=O)c2c(ncn2C)n(C)c1=O [Pentoxifylline]
Rabbit IOP
  effect on IOP of rabbits (in words): did not significantly lower IOP
Rabbit IOP; 0 hour after treatment
  % Change in IOP Mean: 0.0%
  IOP (mmHg) Mean: 23.8 mmHg
Rabbit IOP; 1 hour after treatment
  % Change in IOP Mean: −8.9%
  IOP (mmHg) Mean: 21.6 mmHg
Rabbit IOP; 3 hours after treatment
  % Change in IOP Mean: −1.8%
  IOP (mmHg) Mean: 23.1 mmHg
Rabbit IOP; 5 hours after treatment
  % Change in IOP Mean: 17.5%
  IOP (mmHg) Mean: 27.8 mmHg
Rabbit IOP; 7 hours after treatment
  % Change in IOP Mean: 15.9%
  IOP (mmHg) Mean: 27.3 mmHg
[1]
  effect on IOP: slight decrease in IOP
[2]
  change in MMP-3 expression in the TM cells: did not produce a statistically significant change

## CCCn1cnc2c1c(=O)n(CCCCC(C)=O)c(=O)n2C [Propentofylline, 3-methyl-1-(5′-oxohexyl)-7-propyl-xanthine]
Rabbit IOP
  effect on IOP of rabbits (in words): did not affect the IOP of rabbits
Rabbit IOP; 500 μg topical onto the eye
  tolerability: well tolerated
Rabbit IOP; 0 hour after treatment
  % Change in IOP Mean: 0.0%
  IOP (mmHg) Mean: 23.5 mmHg
Rabbit IOP; 1 hour after treatment
  % Change in IOP Mean: −10.0%
  IOP (mmHg) Mean: 21.0 mmHg
Rabbit IOP; 3 hours after treatment
  % Change in IOP Mean: 1.3%
  IOP (mmHg) Mean: 23.6 mmHg
Rabbit IOP; 5 hours after treatment
  % Change in IOP Mean: 1.1%
  IOP (mmHg) Mean: 23.5 mmHg
Rabbit IOP; 7 hours after treatment
  % Change in IOP Mean: 4.7%
  IOP (mmHg) Mean: 24.0 mmHg
Lasered monkey eyes
  IOP-lowering effect, single dose: clearly reduced IOP at 1 hour
  IOP-lowering effect after repeated doses: ocular hypotensive even after repeated doses
Lasered monkey eyes; listed as propentofylline
  IOP-lowering effect, single dose: dramatic decrease in IOP
  IOP-lowering effect after repeated doses: persisted even after 7 consecutive days
Lasered monkey eyes; monkeys, 500 μg topical
  tolerability: well tolerated
[3]
  outflow rates compared to vehicle-treated eyes: significantly increased
[2]; 100 μM, cultured human trabecular meshwork cells
  expression of MMP-3: significantly increased the expression of MMP-3

## OCCN(CCO)c1nc(N2CCCCC2)c2nc(N(CCO)CCO)nc(N3CCCCC3)c2n1 [dipyridamole]
[2]
  change in MMP-3 expression in the TM cells: did not produce a statistically significant change

## CCCn1cnc2c1c(=O)n(CCCCC(C)O)c(=O)n2C (stereo not drawn) [hydroxy-propentofylline]
[2]
  change in MMP-3 expression in the TM cells: did not produce a statistically significant change

## CC(C)OC(=O)CCC/C=C\C[C@@H]1[C@@H](CC[C@@H](O)CCc2ccccc2)[C@H](O)C[C@@H]1O [latanoprost]
IOP in the rabbit
  effect on IOP in the rabbit: no measurable effect on IOP

## CN(C)c1ccc(O)c2c1C[C@H]1C[C@H]3[C@H](N(C)C)C(O)=C(C(N)=O)C(=O)[C@@]3(O)C(O)=C1C2=O [minocylcine]
Human anterior segment
  effect on outflow facility / aqueous outflow (in words): suppressed aqueous outflow

## CC[C@@H]1C(=O)OC[C@@H]1Cc1cncn1C [pilocarpine]
IOP in the rabbit
  effect on IOP in the rabbit: no measurable effect on IOP

B1: interleukin-1α: cytokine known to increase the expression of matrix metalloproteinases in the TM (protein, UniProt P01583 113-271, looked up)
Interleukin-1 alpha: SAPFSFLSNVKYNFMRIIKYEFILNDALNQSIIRANDQYLTAAALHNLDEAVKFDMGAYKSSKDDAKITVILRISKTQLYVTAQDEDQPVLLKEMPEIPKTITGSETNLLFFWETHGTKNYFTSVAHPNLFIATKQDYWVCLAGGPPSITDFQILENQA
Human anterior segment
  effect on outflow facility / aqueous outflow (in words): augmented the outflow facility

— patent US20040110776A1, “Use of propentofylline to control intraocular pressure” (priority 2003, published 2004)
